Here are results for 24 molecules from patent US5175159A, “3-substituted-1,4-benzodiazepines as oxytocin antagonists” (Merck & Co., Inc., priority 1990, dated 1992).

For the first test, the target named is T1, oxytocin receptor (Rattus norvegicus, UniProt P70536).
T1 construct: crude membrane preparation of rat uterus as the source of oxytocin receptors; from tissue; host or cells: rat uterus, crude membrane preparation
T1 sequence (P70536 1-388): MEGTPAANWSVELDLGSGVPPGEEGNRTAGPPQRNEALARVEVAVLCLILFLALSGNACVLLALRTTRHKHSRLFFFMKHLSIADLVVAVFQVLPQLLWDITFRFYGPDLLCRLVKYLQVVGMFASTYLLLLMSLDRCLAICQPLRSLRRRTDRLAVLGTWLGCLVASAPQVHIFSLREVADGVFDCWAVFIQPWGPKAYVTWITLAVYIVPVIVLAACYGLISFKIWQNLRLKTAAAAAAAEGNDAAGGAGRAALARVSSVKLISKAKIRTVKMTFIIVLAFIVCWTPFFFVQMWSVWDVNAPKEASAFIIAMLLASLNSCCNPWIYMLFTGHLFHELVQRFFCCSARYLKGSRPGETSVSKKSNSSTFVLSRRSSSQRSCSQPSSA
Description: [^3H]Oxytocin Binding Assay (crude membrane preparation of rat uterus).
Conditions: not given
The text has this: The biological activities of the compounds of Formula I have been evaluated using a[^3 H]oxytocin binding assay.
[^3 H]Oxytocin Binding Assay
Oxytocin receptors have been identified in mammalian uterine tissue through the use of in vitro radioligand binding assays. These receptor binding sites mediate the contractile response of the uterine myometrium to oxytocin. The present radioligand binding procedure has been adapted from the methods of Soloff, M. S. and Grzonka, Z., Endocrinology 119: 1564-1569 (1986) and Fuchs, A-R., Fuchs, F., and Soloff, M. S., J. Clinical Endocrinology and Metabolism 60: 37-41 (1985) and is utilized here to measure the relative affinity of test compounds for the oxytocin receptor labeled by [^3 H]oxytocin. The assay uses a crude membrane preparation of rat uterus as the source of oxytocin receptors. The IC50 values (concentration of test compound to inhibit [^3 H]oxytocin binding by 50%) are determined by incubating uterine tissue with [^3 H]oxytocin in the presence or absence of varying concentrations of compound.
Turning to `CN1C(=O)C(NC(=O)NC2C3CC4CC(C3)CC2C4)N=C(c2ccccc2)c2ccccc21` (racemic) [Example 1, (+/-)-N-(2,3-DIHYDRO-1-METHYL-2-OXO-5-PHENYL-1H-1,4-BENZODIAZEPIN-3-YL)-N'- TRICYCLO(3.3.1.1(3,7))DEC-2-YL-UREA], the IC50 came to 3900 nM.

Molecule `CN1C(=O)C(NC(=O)C23CC4CC(CC(C4)C2)C3)N=C(c2ccccc2)c2ccccc21` (racemic) [Example 4, (+/-)-N-(2,3-DIHYDRO-1-METHYL-2-OXO-5-PHENYL-1H-1,4-BENZODIAZEPIN-3-YL)-TRICYCLO(3.3.1.1(3,7))DECANE-1-CARBOXAMIDE] returned an IC50 of 13800 nM.

For the molecule `CN1C(=O)C(NC(=O)CC23CC4CC(CC(C4)C2)C3)N=C(c2ccccc2)c2ccccc21` (racemic) [Example 5, (+/-)-N-(2,3-DIHYDRO-1-METHYL-2-OXO-5-PHENYL-1H-1,4-BENZODIAZEPIN-3-YL)-TRICYCLO(3.3.1.1(3,7))DECANE-1-ACETAMIDE)], the IC50 was 2800 nM.

Turning to `CN1C(=O)C(NC(=O)NCC23CC4CC(CC(C4)C2)C3)N=C(c2ccccc2)c2ccccc21` (racemic) [Example 6, (+/-)-N-(2,3-DIHYDRO-1-METHYL-2-OXO-5-PHENYL-1H-1,4-BENZODIAZEPIN-3-YL)-N'- TRICYCLO(3.3.1.1(3,7))DEC-1-YL-METHYL)-UREA], the IC50 worked out at 2700 nM.

As for `CN1C(=O)C(NC(=O)CC23CC4CC(CC(C)(C4)C2)C3)N=C(c2ccccc2)c2ccccc21` (racemic) [Example 7, (+/-)-N-(2,3-DIHYDRO-1-METHYL-2-OXO-5-PHENYL-1H-1,4-BENZODIAZEPIN-3-YL)-3-METHYLTRICYCLO(3.3.1.1(3,7))DECANE-1-ACETAMIDE], the IC50 was found to be 4700 nM.

Regarding `CN1C(=O)[C@H](NC(=O)NC23CC4CC(CC(C4)C2)C3)N=C(c2ccccc2)c2ccccc21` (single isomer, unassigned) [Example 3], the IC50 was found to be 1690 nM.

Regarding `CN1C(=O)[C@H](NS(=O)(=O)C[C@@]23CC[C@@H](CC2O)C3(C)C)N=C(c2ccccc2)c2ccccc21` (single isomer, unassigned) [Example 16A, N-(2,3-DIHYDRO-1-METHYL-2-OXO-5-PHENYL-1H-1,4-BENZODIAZEPIN-3-YL)-2-HYDROXY-7,7-DIMETHYL-BICYCLO(2.2.1) HEPTANE-1-METHANESULFONAMIDE, ISOMER A AND ISOMER B], the IC50 was found to be 1400 nM.

`CN1C(=O)C(NC(=O)NC2C3CC4CC(C3)CC2C4)N=C(c2ccccc2)c2ccccc21` (single isomer, unassigned; (+)) [Example 2, (+)-N-(2,3-DIHYDRO-1-METHYL-2-OXO-5-PHENYL-1H-1,4-BENZODIAZEPIN-3-YL)-N'-TRICYCLO(3.3.1.1(3,7))DEC-2-YL-UREA] returned an IC50 of 1600 nM.

As for `CN1C(=O)C(NS(=O)(=O)C[C@]23CC[C@H](CC2=O)C3(C)C)N=C(c2ccccc2)c2ccccc21` (stereo partly drawn) [Example 8, (1S)-(1.ALPHA.(RS),4.ALPHA.))-N-(2,3-DIHYDRO-1-METHYL-2-OXO-5-PHENYL-1H-1,4-BENZODIAZEPIN-3-YL)-7,7-DIMETHYL-2-OXO-BICYCLO(2.2.1)HEPTANE-1-METHANESULFONAMIDE], the IC50 came to 4600 nM.

`CN1C(=O)C(NS(=O)(=O)C[C@@]23CC[C@@H](CC2=O)C3(C)C)N=C(c2ccccc2)c2ccccc21` (stereo partly drawn) [Example 9, (1R-(1.ALPHA.(RS),4.ALPHA.))-N-(2,3-DIHYDRO-1-METHYL-2-OXO-5-PHENYL-1H-1,4- BENZODIAZEPIN-3-YL)-7,7-DIMETHYL-2-OXO-BICYCLO(2.2.1)HEPTANE-1-METHANESULFONAMIDE] yielded an IC50 of 3600 nM.

`CN1C(=O)[C@H](NS(=O)(=O)C[C@@]23CC[C@@H](CC2=O)C3(C)C)N=C(c2ccccc2)c2ccccc21` [Example 15, (1R-(1.ALPHA.(S*),4.ALPHA.))-N-(2,3-DIHYDRO-1-METHYL-2-OXO-5-PHENYL-1H-1,4- BENZODIAZEPIN-3-YL)-7,7-DIMETHYL-2-OXO-BICYCLO(2.2.1)HEPTANE-1-METHANESULFONAMIDE] yielded a 50% inhibitory concentration (IC50) of 1400 nM.

`CN1C(=O)[C@@H](NS(=O)(=O)C[C@@]23CC[C@@H](CC2O)C3(C)C)N=C(c2ccccc2)c2ccccc21` (stereo partly drawn) [Example 17, N-(2,3-DIHYDRO-1-METHYL-2-OXO-5-PHENYL-1H-1,4-BENZODIAZEPIN-3-YL)-2-HYDROXY-7,7-DIMETHYL-BICYCLO(2.2.1) HEPTANE-1-METHANESULFONAMIDE] displayed a half-maximal inhibitory concentration (IC50) of 2500 nM.

Still in this test, the particulars now being: [^3H]oxytocin binding, rat uterus membranes; @ 10 μM.
Consider `CN1C(=O)[C@@H](NC(=O)CC2C3CCC(C)(C2O)C3(C)C)N=C(c2ccccc2)c2ccccc21` (single isomer, unassigned) [Example 22B], for which the “% inhibition @ μM conc. (10 μM)” value is recorded as 41%.

Still in this test, the particulars now being: [^3H]oxytocin binding, rat uterus membranes; @ 10 μM; read-out: % inhibition @ μM conc. (10 μM).
`CN1C(=O)CN(C(=O)NCC23CC4CC(CC(C4)C2)C3)C(c2ccccc2)c2ccccc21` (racemic) [Example 12, (+/-)-1,2,3,5-TETRAHYDRO-1-METHYL-2-OXO-5-PHENYL-N-(TRICYCLO(3.3.1.1.(3,7))DEC-1-YLMETHYL)-4H-1,4-BENZODIAZEPINE-4-CARBOXAMIDE]: the inhibition at 10 µM turned out to be 66%.

As to `CN1C(=O)CN(C(=O)NC2C3CC4CC(C3)CC2C4)C(c2ccccc2)c2ccccc21` (racemic) [Example 13, (+/-)-1,2,3,5-TETRAHYDRO-1-METHYL-2-OXO-5-PHENYL-N-TRICYCLO(3.3.1.1(3,7))DEC-2-YL-4H-1,4-BENZODIAZEPINE-4-CARBOXAMIDE], the inhibition at 10 µM worked out at 48%.

The test is the same for the next values; noted with them: read-out: % inhibition @ μM conc. (1 μM), [^3H]oxytocin binding, rat uterus membranes; @ 1 μM.
Turning to `CN1C(=O)[C@H](NC(=O)CC2C(=O)C3(C)CCC2C3(C)C)N=C(c2ccccc2)c2ccccc21` (single isomer, unassigned) [Example 19], the inhibition at 1 µM amounted to 39%.

As to `CN1C(=O)[C@H](NS(=O)(=O)C[C@]23CC[C@H](CC2=O)C3(C)C)N=C(c2ccccc2)c2ccccc21` [Example 20, (1S-(1.ALPHA.(S*),4.ALPHA.))-N-(2,3-DIHYDRO-1-METHYL-2-OXO-5-PHENYL-1H-1,4- BENZODIAZEPIN-3-YL)-7,7-DIMETHYL-2-OXO-BICYCLO(2.2.1)HEPTANE-1-METHANESULFONAMIDE], the inhibition at 1 µM was 35%.

As for `CN1C(=O)[C@H](NC(=O)C2C(=O)C3(C)CCC2C3(C)C)N=C(c2ccccc2)c2ccccc21` (stereo partly drawn) [Example 23, [3(R)-N-(2,3-DIHYDRO-1-METHYL-2-OXO-5-PHENYL-1H-1,4-BENZODIAZEPIN-3-YL)]-2- OXO-1,7,7-TRIMETHYLBICYCLO(2.2.1)HEPTANE-3-CARBOXAMIDE], the inhibition at 1 µM came to 35%.

Staying with this test, now noted: read-out: % inhibition @ μM conc. (10 μM), [^3H]oxytocin binding, rat uterus membranes; @ 10 μM.
For `CCOC(=O)[C@@H](NC(=O)NC1N=C(c2ccccc2)c2ccccc2N(C)C1=O)c1ccccc1` (single isomer, unassigned) [Example 11, ALPHA.-((((2,3-DIHYDRO-1-METHYL-2-OXO-5-PHENYL-1H-1,4-BENZODIAZEPIN-3-YL)AMINO)CARBONYL)AMINO)BEN[…] ETHYL ESTER, ALPHA ISOMER], the inhibition at 10 µM is 46%.

As for `CN1C(=O)[C@@H](NC(=O)CC2C(=O)C3(C)CCC2C3(C)C)N=C(c2ccccc2)c2ccccc21` (single isomer, unassigned) [Example 18], the inhibition at 10 µM worked out at 39%.

With `CN1C(=O)[C@H](NC(=O)CC2C(=O)C3(C)CCC2C3(C)C)N=C(c2ccccc2)c2ccccc21` (single isomer, unassigned) [Example 19], the inhibition at 10 µM turned out to be 82%.

`CN1C(=O)[C@@H](NC(=O)CC2C3CCC(C)(C2O)C3(C)C)N=C(c2ccccc2)c2ccccc21` (single isomer, unassigned) [Example 22A]: the inhibition at 10 µM turned out to be 50%.

Consider `CN1C(=O)[C@@H](NS(=O)(=O)C[C@@]23CC[C@@H](CC2=O)C3(C)C)N=C(c2ccccc2)c2ccccc21` [Example 14, (1R-(1.ALPHA.(R*),4.ALPHA.))-N-(2,3-DIHYDRO-1-METHYL-2-OXO-5-PHENYL-1H-1,4- BENZODIAZEPIN-3-YL)-7,7-DIMETHYL-2-OXO-BICYCLO(2.2.1)HEPTANE-1-METHANESULFONAMIDE], for which the inhibition at 10 µM came out at 52%.

As for `CN1C(=O)[C@H](NS(=O)(=O)C[C@]23CC[C@H](CC2=O)C3(C)C)N=C(c2ccccc2)c2ccccc21` [Example 20, (1S-(1.ALPHA.(S*),4.ALPHA.))-N-(2,3-DIHYDRO-1-METHYL-2-OXO-5-PHENYL-1H-1,4- BENZODIAZEPIN-3-YL)-7,7-DIMETHYL-2-OXO-BICYCLO(2.2.1)HEPTANE-1-METHANESULFONAMIDE], the inhibition at 10 µM worked out at 80%.

As for `CN1C(=O)[C@@H](NS(=O)(=O)C[C@]23CC[C@H](CC2=O)C3(C)C)N=C(c2ccccc2)c2ccccc21` [Example 21, (1S-(1.ALPHA.(R*), 4.ALPHA.))-N-(2,3-DIHYDRO-1-METHYL-2-OXO-5-PHENYL-1H-1,4-BENZODIAZEPIN-3-YL)-7,7-DIMETHYL-2-OXO-BICYCLO(2.2.1)HEPTANE-1-METHANESULFONAMIDE], the inhibition at 10 µM is 15%.

As for `CN1C(=O)[C@H](NC(=O)C2C(=O)C3(C)CCC2C3(C)C)N=C(c2ccccc2)c2ccccc21` (stereo partly drawn) [Example 23, [3(R)-N-(2,3-DIHYDRO-1-METHYL-2-OXO-5-PHENYL-1H-1,4-BENZODIAZEPIN-3-YL)]-2- OXO-1,7,7-TRIMETHYLBICYCLO(2.2.1)HEPTANE-3-CARBOXAMIDE], the inhibition at 10 µM amounted to 85%.

The test is the same for the next values; noted with them: read-out: [^3 H]OT(uterus) IC50; inhibition of [^3H]oxytocin binding, rat uterus membranes.
Take `CN1C(=O)C(NS(=O)(=O)CC23CCC(CC2O)C3(C)C)N=C(c2ccccc2)c2ccccc21` (single isomer, unassigned) [Example 16B, N-(2,3-DIHYDRO-1-METHYL-2-OXO-5-PHENYL-1H-1,4-BENZODIAZEPIN-3-YL)-2-HYDROXY-7,7-DIMETHYL-BICYCLO(2.2.1) HEPTANE-1-METHANESULFONAMIDE, ISOMER A AND ISOMER B]: the IC50 stood at 1000 nM.
